According to ChEMBL document CHEMBL3228017, “Apparent bioisosteric replacement of--S--by NCN: synthesis of N--cyano-2-aza-A-nor-5alpha-androstan-17beta-ol acetate, an aza steroid androgen” (1979):
The source made the active and inactive calls. No cut-off for these calls is given here.

Key:
Rattus norvegicus [1] = organism: Rattus norvegicus; test: Myotrophic activity in rat assessed as increase of levator ani weight at 0.3 mg (reference value: 32.2 +/- 1.82 mg); assay type: functional
Rattus norvegicus [2] = organism: Rattus norvegicus; test: Androgenic activity in rat assessed as increase of ventral prostate weight at 0.3 mg (reference value: 18.1 +/- 0.91 mg); assay type: functional, Prostate gland
Rattus norvegicus [3] = organism: Rattus norvegicus; test: Androgenic activity in rat assessed as increase of seminal vesicle weight at 0.3 mg (reference value: 11.4 +/- 0.38 mg); assay type: functional
Rattus norvegicus [4] = organism: Rattus norvegicus; test: Androgenic activity in rat assessed as increase in final body weight at 0.3 mg (reference value: 98 g); assay type: functional
Rattus norvegicus [5] = organism: Rattus norvegicus; test: Androgenic activity in rat assessed as increase of ventral prostate weight at 3 mg (reference value: 18.1 +/- 0.91 mg); assay type: functional, Prostate gland
Rattus norvegicus [6] = organism: Rattus norvegicus; test: Androgenic activity in rat assessed as increase in final body weight at 3 mg (reference value: 98 g); assay type: functional
Rattus norvegicus [7] = organism: Rattus norvegicus; test: Myotrophic activity in rat assessed as increase of levator ani weight at 3 mg (reference value: 32.2 +/- 1.82 mg); assay type: functional
Rattus norvegicus [8] = organism: Rattus norvegicus; test: Androgenic activity in rat assessed as increase of seminal vesicle weight at 3 mg in presence of testosterone (reference value: 11.4 +/- 0.38 mg); assay type: functional
Rattus norvegicus [9] = organism: Rattus norvegicus; test: Antiandrogenic activity in rat assessed as reduction in ventral prostate weight at 3 mg; assay type: functional, organism-based; conditions: Prostate gland
Rattus norvegicus [10] = organism: Rattus norvegicus; test: Myotrophic activity in rat assessed as increase of levator ani weight at 3 mg in presence of testosterone (reference value: 32.2 +/- 1.82 mg); assay type: functional
Rattus norvegicus [11] = organism: Rattus norvegicus; test: Androgenic activity in rat assessed as increase of seminal vesicle weight at 3 mg (reference value: 11.4 +/- 0.38 mg); assay type: functional
Rattus norvegicus [12] = organism: Rattus norvegicus; test: Androgenic activity in rat assessed as increase of ventral prostate weight at 3 mg in presence of testosterone (reference value: 18.1 +/- 0.91 mg); assay type: functional, Prostate gland
Rattus norvegicus [13] = organism: Rattus norvegicus; test: Antiandrogenic activity in rat assessed as reduction in seminal vesicle weight at 3 mg; assay type: functional, organism-based
Rattus norvegicus [14] = organism: Rattus norvegicus; test: Androgenic activity in rat assessed as increase in final body weight at 3 mg in presence of testosterone (reference value: 98 g); assay type: functional
Rattus norvegicus [15] = organism: Rattus norvegicus; test: Antimyotrophic activity in rat assessed as reduction in levator ani weight at 3 mg; assay type: functional, organism-based
Rattus norvegicus [16] = organism: Rattus norvegicus; test: Androgenic activity in rat assessed as increase of ventral prostate weight (reference value: 18.1 +/- 0.91 mg); assay type: functional, Prostate gland
Rattus norvegicus [17] = organism: Rattus norvegicus; test: Myotrophic activity in rat assessed as increase of levator ani weight (reference value: 32.2 +/- 1.82 mg); assay type: functional
Rattus norvegicus [18] = organism: Rattus norvegicus; test: Androgenic activity in rat assessed as increase in final body weight (reference value: 98 g); assay type: functional
Rattus norvegicus [19] = organism: Rattus norvegicus; test: Androgenic activity in rat assessed as increase of seminal vesicle weight (reference value: 11.4 +/- 0.38 mg); assay type: functional

C[C@]12CC[C@H]3[C@@H](CCC4=CC(=O)CC[C@@]43C)[C@@H]1CC[C@@H]2O [TESTOSTERONE]
Activity (Rattus norvegicus [1]): 37.8 mg
Activity (Rattus norvegicus [2]): 35.3 mg
Activity (Rattus norvegicus [3]): 12.9 mg
Activity (Rattus norvegicus [4]): 97 g

CC(=O)O[C@H]1CC[C@H]2[C@@H]3CC[C@H]4CN(C#N)C[C@]4(C)[C@H]3CC[C@]12C
Activity (Rattus norvegicus [5]): 56.1 mg
Activity (Rattus norvegicus [6]): 95 g
Activity (Rattus norvegicus [7]): 55.8 mg
Activity (Rattus norvegicus [8]): 40.6 mg
inhibition (Rattus norvegicus [9]): inactive
Activity (Rattus norvegicus [10]): 58.7 mg
Activity (Rattus norvegicus [11]): 33.3 mg
Activity (Rattus norvegicus [12]): 61.6 mg
inhibition (Rattus norvegicus [13]): inactive
Activity (Rattus norvegicus [14]): 99 g
inhibition (Rattus norvegicus [15]): inactive

CC(=O)O[C@H]1CC[C@H]2[C@@H]3CC[C@H]4CN(Cc5ccccc5)C[C@]4(C)[C@H]3CC[C@]12C
Activity (Rattus norvegicus [16]): 19.4 mg
Activity (Rattus norvegicus [17]): 24.2 mg
Activity (Rattus norvegicus [18]): 89 g
Activity (Rattus norvegicus [19]): 10.7 mg
